According to patent US10669272B2, “Substituted naphthyridinone compounds useful as T cell activators” (BRISTOL-MYERS SQUIBB COMPANY, priority 2018, dated 2020):
Like-named read-outs stand apart in the source and are kept apart here.

How the values were obtained:
[1] = biological target: T1, human DGKα (Homo sapiens, UniProt P23743); assay: DGKα LIPGLO assay (extruded liposome substrate), in vitro DGK inhibition; format: biochemical; settings: read-out: DGKa LIPGLO IC50
T1 construct: TVMV protease cleavage site (C); Hexa-His (C); made in house; host or cells: Sf9 insect cells (baculovirus, Bac-to-Bac)
T1 sequence (P23743 with tags, fused parts or gaps): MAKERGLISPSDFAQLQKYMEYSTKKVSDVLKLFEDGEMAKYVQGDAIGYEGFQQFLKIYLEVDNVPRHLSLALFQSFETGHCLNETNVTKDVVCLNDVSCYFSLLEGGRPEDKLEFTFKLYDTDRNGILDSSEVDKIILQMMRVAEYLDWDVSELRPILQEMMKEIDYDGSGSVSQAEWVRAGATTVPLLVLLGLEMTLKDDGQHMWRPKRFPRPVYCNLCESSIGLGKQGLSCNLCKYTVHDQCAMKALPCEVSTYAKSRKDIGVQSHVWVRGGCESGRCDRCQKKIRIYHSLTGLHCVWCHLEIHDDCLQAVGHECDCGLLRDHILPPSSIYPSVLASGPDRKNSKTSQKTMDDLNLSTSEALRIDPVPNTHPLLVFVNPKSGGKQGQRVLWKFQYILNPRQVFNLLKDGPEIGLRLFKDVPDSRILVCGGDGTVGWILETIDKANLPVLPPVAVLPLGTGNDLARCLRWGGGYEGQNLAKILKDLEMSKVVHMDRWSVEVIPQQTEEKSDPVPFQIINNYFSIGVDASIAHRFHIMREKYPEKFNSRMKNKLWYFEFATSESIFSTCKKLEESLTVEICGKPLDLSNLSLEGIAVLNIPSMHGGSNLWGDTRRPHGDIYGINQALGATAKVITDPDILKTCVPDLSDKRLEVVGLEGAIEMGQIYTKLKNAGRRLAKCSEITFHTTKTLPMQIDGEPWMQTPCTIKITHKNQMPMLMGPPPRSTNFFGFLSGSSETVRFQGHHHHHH

[2] = biological target: T2, human DGKζ (Homo sapiens, UniProt Q13574); assay: DGKζ LIPGLO assay (extruded liposome substrate), in vitro DGK inhibition; format: biochemical; settings: read-out: DGKz LIPGLO IC50
T2 construct: TVMV protease cleavage site (C); Hexa-His (C); made in house; host or cells: Sf9 insect cells (baculovirus, Bac-to-Bac)
T2 sequence (Q13574 with tags, fused parts or gaps isoform Q13574-4): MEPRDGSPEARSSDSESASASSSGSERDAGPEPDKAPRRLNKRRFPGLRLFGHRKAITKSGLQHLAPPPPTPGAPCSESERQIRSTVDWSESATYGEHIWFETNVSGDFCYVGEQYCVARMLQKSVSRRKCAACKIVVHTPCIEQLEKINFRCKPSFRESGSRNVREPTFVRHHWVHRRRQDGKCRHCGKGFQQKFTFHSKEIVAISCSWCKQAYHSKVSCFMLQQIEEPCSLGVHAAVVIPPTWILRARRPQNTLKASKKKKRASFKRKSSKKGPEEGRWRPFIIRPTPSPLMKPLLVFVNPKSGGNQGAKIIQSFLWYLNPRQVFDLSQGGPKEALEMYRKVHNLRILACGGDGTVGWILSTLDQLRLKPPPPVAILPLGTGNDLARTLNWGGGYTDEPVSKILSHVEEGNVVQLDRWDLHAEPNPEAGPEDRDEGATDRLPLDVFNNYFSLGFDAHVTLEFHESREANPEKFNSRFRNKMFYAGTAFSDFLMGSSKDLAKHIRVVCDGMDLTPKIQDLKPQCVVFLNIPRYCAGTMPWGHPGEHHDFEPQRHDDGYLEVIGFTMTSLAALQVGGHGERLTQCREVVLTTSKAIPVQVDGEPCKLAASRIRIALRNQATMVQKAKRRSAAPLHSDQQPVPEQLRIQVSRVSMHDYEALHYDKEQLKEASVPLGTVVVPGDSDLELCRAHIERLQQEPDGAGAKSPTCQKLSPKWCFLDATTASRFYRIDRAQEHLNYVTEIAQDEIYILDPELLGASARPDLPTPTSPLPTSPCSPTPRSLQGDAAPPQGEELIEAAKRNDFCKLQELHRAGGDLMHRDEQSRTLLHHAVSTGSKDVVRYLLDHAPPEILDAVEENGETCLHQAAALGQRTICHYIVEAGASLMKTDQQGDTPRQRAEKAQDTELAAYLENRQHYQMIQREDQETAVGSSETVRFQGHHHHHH

[3] = test system: Human venous whole blood; assay: Human whole blood IFN-γ assay; format: cell-based; settings: human whole blood, read-out: INFg Whole Blood Normalized Agonist EC50;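 also: blood from healthy donors exposed to compound for 1 h before stimulation with anti-CD3 and anti-CD28 at 1 µg/mL each, IFN-γ quantified in supernatant by AlphaLISA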
[4] = Homo sapiens, 24 h, anti-CD3 plus anti-CD28, 24 hours, 3 μM reference compound = 100% activation
[5] = anti-CD3 plus anti-CD28, 24 hours, 3 μM reference compound = 100% activation
[6] = normalized to 3 μM reference compound with anti-CD3 plus anti-CD28 as 100% activation

Row | IC50 ([1]; DGKα liposome (LIPGLO) assay) | IC50 ([2]; DGKζ liposome (LIPGLO) assay) | IC50 ([1]; liposome (LIPGLO) assay) | IC50 ([2]; liposome (LIPGLO) assay) | Structure (SMILES) | EC50 [3, 4] | EC50 [3, 5] | EC50 ([3]; Homo sapiens, 24 h, normalized to 3 μM reference compound with anti-CD3 plus anti-CD28 as 100% activation) | EC50 [3, 6]
1 | 6.7 µM | 6.6 µM |  |  | CC(c1ccc(C(F)(F)F)cc1)N1CCN(c2c(C#N)c(=O)n(C)c3ccc(C#N)nc23)C[C@H]1C (single isomer, unassigned) [Example 960] | 20 µM |  |  | 
2 | 1.5 µM | > 250 µM |  |  | CC(c1ccc(OC(F)(F)F)cc1)N1CCN(c2c(C#N)c(=O)n(C)c3ccc(C#N)nc23)C[C@H]1C (single isomer, unassigned) [Example 962] |  | 20 µM |  | 
3 | 1.4 µM | 180 µM |  |  | CC(c1ccccn1)N1CCN(c2c(C#N)c(=O)n(C)c3ccc(C#N)nc23)C[C@H]1C (single isomer, unassigned) [Example 963] | 20 µM |  |  | 
4 | 61 µM | > 250 µM |  |  | CC(c1ccccc1C(F)(F)F)N1CCN(c2c(C#N)c(=O)n(C)c3ccc(C#N)nc23)C[C@H]1C (single isomer, unassigned) [Example 966] | 20 µM |  |  | 
5 | > 250 µM | > 250 µM |  |  | CC(c1ccccc1C(F)(F)F)N1CCN(c2c(C#N)c(=O)n(C)c3ccc(C#N)nc23)C[C@H]1C (single isomer, unassigned) [Example 968] |  | 20 µM |  | 
6 | 0.76 µM | 1.2 µM |  |  | CC(c1ccc(F)cc1F)N1CCN(c2c(C#N)c(=O)n(C)c3ccc(C#N)nc23)C[C@H]1C (single isomer, unassigned) [Example 969] |  | 1.3 µM |  | 
7 | 0.87 µM | 28 µM |  |  | CC(c1ccc(F)cc1F)N1CCN(c2c(C#N)c(=O)n(C)c3ccc(C#N)nc23)C[C@H]1C (single isomer, unassigned) [Example 970] |  | 11 µM |  | 
8 | 1.1 µM | 7.6 µM |  |  | CC(c1ccc(Br)cc1)N1CCN(c2c(C#N)c(=O)n(C)c3ccc(C#N)nc23)C[C@H]1C (single isomer, unassigned) [Example 974] | 20 µM |  |  | 
9 | 0.33 µM | 83 µM |  |  | CC(c1ccc(Br)cc1)N1CCN(c2c(C#N)c(=O)n(C)c3ccc(C#N)nc23)C[C@H]1C (single isomer, unassigned) [Example 975] |  | 20 µM |  | 
10 | 17 µM | 6.4 µM |  |  | Cc1ccc(C)c(C(C)N2CCN(c3c(C#N)c(=O)n(C)c4ccc(C#N)nc34)C[C@H]2C)c1 (single isomer, unassigned) [Example 976] |  | 20 µM |  | 
11 | 48 µM | 1 µM |  |  | Cc1ccc(C)c(C(C)N2CCN(c3c(C#N)c(=O)n(C)c4ccc(C#N)nc34)C[C@H]2C)c1 (single isomer, unassigned) [Example 977] |  | 4.9 µM |  | 
12 | 0.91 µM | 55 µM |  |  | CC(c1ccc(Cl)cc1)N1CCN(c2c(C#N)c(=O)n(C)c3ccc(C#N)nc23)C[C@H]1C (single isomer, unassigned) [Example 979] | 20 µM |  |  | 
13 | 8.1 µM | 1.7 µM |  |  | COC(=O)c1cccc(C(C)N2CCN(c3c(C#N)c(=O)n(C)c4ccc(C#N)nc34)C[C@H]2C)c1 (single isomer, unassigned) [Example 982] | 20 µM |  |  | 
14 | 3.5 µM | 7.2 µM |  |  | COC(=O)c1cccc(C(C)N2CCN(c3c(C#N)c(=O)n(C)c4ccc(C#N)nc34)C[C@H]2C)c1 (single isomer, unassigned) [Example 983] |  | 13 µM |  | 
15 | 81 µM | 74 µM |  |  | C[C@@H]1CN(c2c(C#N)c(=O)n(C)c3ccc(C#N)nc23)CCN1C(c1ccc(F)cc1)c1cncn1C (single isomer, unassigned) [Example 1018] | 20 µM |  |  | 
16 | 32 µM | 5.9 µM |  |  | C[C@@H]1CN(c2c(C#N)c(=O)n(C)c3ccc(C#N)nc23)CCN1C(c1ccc(F)cc1)c1cncn1C (single isomer, unassigned) [Example 1019] |  | 20 µM |  | 
17 |  |  | 0.44 µM | 2.2 µM | C[C@@H]1CN(c2c(C#N)c(=O)n(C)c3ccc(C#N)nc23)CCN1C(c1ccc(F)cc1)c1nccs1 (single isomer, unassigned) [Example 1024] |  |  | 1.2 µM | 
18 |  |  | 1.2 µM | 19 µM | C[C@@H]1CN(c2c(C#N)c(=O)n(C)c3ccc(C#N)nc23)CCN1C(c1ccc(F)cc1)c1nccs1 (single isomer, unassigned) [Example 1025] |  |  |  | 2 µM
19 |  |  | 20 µM | 65 µM | C[C@@H]1CN(c2c(C#N)c(=O)n(C)c3ccc(C#N)nc23)CCN1C(c1ccc(F)cc1)c1cn(C)cn1 (single isomer, unassigned) [Example 1026] |  |  |  | 20 µM
20 |  |  | 29 µM | 2.2 µM | C[C@@H]1CN(c2c(C#N)c(=O)n(C)c3ccc(C#N)nc23)CCN1C(c1ccc(F)cc1)c1cn(C)cn1 (single isomer, unassigned) [Example 1027] |  |  |  | 7.3 µM

Continued, compound first:

Row | Structure (SMILES) | IC50 ([1]; DGKα liposome (LIPGLO) assay) | IC50 ([2]; DGKζ liposome (LIPGLO) assay) | IC50 ([1]; liposome (LIPGLO) assay) | IC50 ([2]; liposome (LIPGLO) assay) | EC50 [3, 4] | EC50 [3, 5] | EC50 ([3]; Homo sapiens, 24 h, normalized to 3 μM reference compound with anti-CD3 plus anti-CD28 as 100% activation) | EC50 [3, 6]
21 | Cc1ccc(C(c2cccc(F)c2)N2CCN(c3c(C#N)c(=O)n(C)c4ccc(C#N)nc34)C[C@H]2C)nc1 (single isomer, unassigned) [Example 923] | 5.5 µM | 1.9 µM |  |  | 0.8 µM |  |  | 
22 | C[C@@H]1CN(c2c(C#N)c(=O)n(C)c3ccc(C#N)nc23)CCN1C(c1ccc(F)cc1)c1ccc(C#N)cn1 (single isomer, unassigned) [Example 924] | 3.2 µM | 10 µM |  |  |  | 4 µM |  | 
23 | Cc1ccc(C(c2cccc(Cl)c2)N2CCN(c3c(C#N)c(=O)n(C)c4ccc(C#N)nc34)C[C@H]2C)nc1 (single isomer, unassigned) [Example 928] | 2.4 µM | 1.5 µM |  |  | 1.7 µM |  |  | 
24 | Cc1ccc(C(c2cccc(Cl)c2)N2CCN(c3c(C#N)c(=O)n(C)c4ccc(C#N)nc34)C[C@H]2C)nc1 (single isomer, unassigned) [Example 929] | 7.7 µM | 1.1 µM |  |  |  | 1.3 µM |  | 
25 | C[C@@H]1CN(c2c(C#N)c(=O)n(C)c3ccc(C#N)nc23)CCN1C(c1ccc(F)cc1)c1cccc2c1OC(F)(F)O2 (single isomer, unassigned) [Example 939] | 83 µM | 4 µM |  |  | 2.6 µM |  |  | 
26 | C[C@@H]1CN(c2c(C#N)c(=O)n(C)c3ccc(C#N)nc23)CCN1C(c1ccc(F)cc1)c1cccc2c1OC(F)(F)O2 (single isomer, unassigned) [Example 940] | 25 µM | 7.2 µM |  |  |  | 2.2 µM |  | 
27 | C[C@@H]1CN(c2c(C#N)c(=O)n(C)c3ccc(C#N)nc23)CCN1C(c1ccc(Cl)cc1)c1ccc2c(c1)OC(F)(F)O2 (single isomer, unassigned) [Example 941] | 4.3 µM | 20 µM |  |  | 20 µM |  |  | 
28 | C[C@@H]1CN(c2c(C#N)c(=O)n(C)c3ccc(C#N)nc23)CCN1C(c1ccc(Cl)cc1)c1ccc2c(c1)OC(F)(F)O2 (single isomer, unassigned) [Example 942] | 26 µM | 2.8 µM |  |  |  | 20 µM |  | 
29 | Cc1ccc(C(c2ccc(Cl)cc2)N2CCN(c3c(C#N)c(=O)n(C)c4ccc(C#N)nc34)C[C@H]2C)cc1 (single isomer, unassigned) [Example 944] | 37 µM | 41 µM |  |  |  | 6.7 µM |  | 
30 | Cc1ccc(C(c2ccc(Cl)cc2)N2CCN(c3c(C#N)c(=O)n(C)c4ccc(C#N)nc34)C[C@H]2C)cc1 (single isomer, unassigned) [Example 945] | 9.8 µM | 9.3 µM |  |  |  | 1.6 µM |  | 
31 | C[C@@H]1CN(c2c(C#N)c(=O)n(C)c3ccc(C#N)nc23)CCN1C(c1ccc(F)cc1)c1ccc(F)cc1F (single isomer, unassigned) [Example 947] | 2 µM | 0.27 µM |  |  | 0.34 µM |  |  | 
32 | C[C@@H]1CN(c2c(C#N)c(=O)n(C)c3ccc(C#N)nc23)CCN1C(c1cccc(F)c1)c1ccc(C(F)(F)F)cn1 (single isomer, unassigned) [Example 948] | 0.6 µM | 0.31 µM |  |  |  | 0.34 µM |  | 
33 | C[C@@H]1CN(c2c(C#N)c(=O)n(C)c3ccc(C#N)nc23)CCN1C(c1cccc(F)c1)c1ccc(C(F)(F)F)cn1 (single isomer, unassigned) [Example 949] | 6.6 µM | 1.1 µM |  |  |  | 20 µM |  | 
34 | CC(c1c(F)cccc1F)N1CCN(c2c(C#N)c(=O)n(C)c3ccc(C#N)nc23)C[C@H]1C (single isomer, unassigned) [Example 950] | 0.21 µM | 0.37 µM |  |  |  | 3.8 µM |  | 
35 | CC(c1c(F)cccc1F)N1CCN(c2c(C#N)c(=O)n(C)c3ccc(C#N)nc23)C[C@H]1C (single isomer, unassigned) [Example 951] | 3.7 µM | 9.8 µM |  |  |  | 20 µM |  | 
36 | CC(c1ccc(F)cc1)N1CCN(c2c(C#N)c(=O)n(C)c3ccc(C#N)nc23)C[C@H]1C (single isomer, unassigned) [Example 957] | 0.26 µM | 8.6 µM |  |  |  | 1.7 µM |  | 
37 | CC(c1ccc(OC(F)(F)F)cc1)N1CCN(c2c(C#N)c(=O)n(C)c3ccc(C#N)nc23)C[C@H]1C (single isomer, unassigned) [Example 958] | 0.49 µM | 28 µM |  |  | 20 µM |  |  | 
38 | CC(c1ccc(F)cc1)N1CCN(c2c(C#N)c(=O)n(C)c3ccc(C#N)nc23)C[C@H]1C (single isomer, unassigned) [Example 959] | 2.4 µM | 5.9 µM |  |  |  | 5.4 µM |  | 
